Measured values reported in patent US20040038369A1, “Airway-specific trypsin-like enzymes and method of using the same” (priority 2000, published 2004).

How the values were obtained:
[1] = tested on: HB-EGF on surface of H292 cell membrane; experiment: Surface antigen analysis (FACS) of HB-EGF on NCI-H292 cell membrane; type: cell-based, human
Protocol: NCI-H292 cells (purchased from ATCC) were cultured on a 10 cm dish in 10% FCS-containing RPMI-1640 until to reach a confluent state, subjected to the replacement of the culture medium by RPMI-1640 containing 0.1% of BSA, and further cultured for 24 hours. The cultured cells were washed with PBS, treated and floated in PBS containing 5 mM of EDTA at 37° C. for five minutes, and then suspended in 0.1%BSA-containing RPMI-1640 in a density of 1.0×10^7 cells/mL.
The above-described cell suspension and 0.1% BSA-containing RPMI-1640 containing HAST in a double concentration (600 mU/mL) were mixed with each other in equivalent amounts, respectively, and reacted with each other at 37° C. for 30 minutes (final cell concentration: 5.0×10^6 cells/mL, final HAST concentration: 300 mU/mL). The reaction solution was mixed with ice-cooled 1% FCS-containing PBS in a volume of 5 times that of the reaction solution to stop the reaction, and the treated solution was then supplied for a surface antigen analysis.
The cells subjected to the prescribed treatments were suspended in 1% FCS-containing PBS in a density of 1.0×10^7 cells/mL. 100 μL of the prepared cell suspension was mixed with a primary antigen (EGF back ground dyeing: 1 μg of normal mouse IgG1 (produced by R & D Corp.), EGF dyeing: 1 μg of an anti-EGF mouse monoclonal antibody (produced by R & D Corp.), HB-EGF back ground dyeing: free from the primary antigen, HB-EGF dyeing: 2 μg of an anti-HB-EGF goat polyclonal antibody (produced by R & D Corp.)) and reacted on ice for 30 minutes. The reaction product was once washed with 5 mL of 1% FCS-containing PBS, mixed with 2 μg of a secondary antigen (EGF back ground dyeing and EGF dyeing: FITC conjugated F(ab′)2 fragment to mouse IgG (produced by Dako Corp.), HB-EGF back ground dyeing and HB-EGF dyeing: Swine Anti-Goat Ig's Fluorescein Conjugate (produced by KPL Corp.)), and then reacted on ice for 30 minutes. The reaction solution was once washed with 5 mL of 1% FCS-containing PBS, and then mixed with Cell Fix (produced by Becton Dickinson Corp.) to immobilize the cells. The expression of the surface antigen was assayed with FACS Calibur (produced by Becton Dickinson Corp.) and analyzed with Cell Quest (produced by Becton Dickinson Corp.). Average fluorescence intensities were shown in the next table as the indicators of expression intensities.
HAST (600 mU/mL) was reacted with leupeptin (10 μM) or BB1101 (5 μM) in 0.1% BSA-containing RPMI-1640 on ice for 30 minutes, and the reaction solution was mixed with the equivalent amount of a cell suspension preliminarily treated with leupeptin (10 μM) or BB1101 (5 μM) at 37° C. for 30 minutes, and further treated at 37° C. for 30 minutes (final HAST concentration: 300 mU/mL, final leupeptin concentration: 10 μM, final BB1101 concentration: 5 μM, final cell concentration: 5.0×10^6 cells/mL). The reaction solution was mixed with ice-cooled 1% FCS-containing PBS in an amount of five times that of the reaction solution to stop the reaction, and then supplied for the surface antigen analysis.
The cells subjected to the prescribed treatments were suspended in 1% FCS-containing PBS in a density of 1.0×10^7 cells/mL. […]

HBEGF (Δ TM)-ALP = experiment: Cleavage of HBEGF (Δ TM)-ALP due to HAST (western blotting); type: biochemical, human; settings: recombinant HAST, 37° C. overnight
Protocol: 293EBNA cell strain was sowed in a density of 9×10^6 cells/10 cm dish, cultured overnight, and then transfected with the human HBEGF-expressing plasmid: pEF9-HBEGF (Δ TM)-ALP prepared in 1). 12 μg of the pEF9-HBEGF (Δ TM)-ALP was subjected to a lipofection with 75 μL of Lipofectamine 2000 (produced by GIBCO-BRL). The lipofection was carried out according to an appended manual. 72 hour later, the cells were peeled with a pipette, and then centrifuged at 3000 rpm at 4° C. for five minutes. The lysate was dissolved in 12 mL of M-PER (produced by PIERCE Corp.), subjected to an SDS-polyacrylamide gel electrophoresis under a non-reducing condition, and then blotted on a nitrocellulose membrane (produced by BIO-RAD Corp.).
The product blotted on the nitrocellulose membrane was treated with 3% BSA-containing PBS at 4° C. overnight and then reacted with the anti-human HB-EGF antibody (produced by GENZYME Corp., an antibody recognizing an EGFR-binding site) diluted with 1% BSA-containing PBS in a concentration of 1 μg/mL, at room temperature for one hour. The nitrocellulose membrane was washed with 0.05% Tween 20-containing PBS three times, and then reacted with Swine Anti-Goat Ig's-ALP antibody (produced by BIOSOURCE Corp.) diluted with 1% BSA-containing PBS in a concentration of 1 μg/mL at room temperature for one hour. […]

“HAST: human airway-specific trypsin-like enzyme; propeptide moiety bound to trypsin-like protein moiety via a disulfide bond” was tested, and the “cleavage of proHB-EGF on the surfaces of the cell membranes” value ([1]; HAST 300 mU/mL) was “cleaved”, the “HB-EGF expression intensity on the surfaces of the cell membranes (average fluorescence intensity)” value ([1]; HAST 300 mU/mL, 37° C., 30 minutes, Back ground 4.5, PBS 8.72) was 6.94 and the “HB-EGF expression intensity on the surfaces of the cell membranes (average fluorescence intensity)” value ([1]; inhibitor experiment, HAST 300 mU/mL alone, Back ground 5.58, PBS 8.61) was 6.26. For the same substance, the “band reactive with the anti-human HB-EGF antibody” value (HBEGF (Δ TM)-ALP) was “shifted to a low molecular weight”.
